According to patent US10370538B2 (priority 2015, dated 2019):
Entries after “also recorded” stand apart in the source; their conditions may differ.

Legend:
mycobacteria = settings: reported in the literature; cited from earlier work
M. smegmatis = settings: 10 μM, room temperature, 1 h, washed
Protocol: FIGS. 5A-5C illustrate freshly cultured E. coli (TOP10), S. pneumoniae, S. aureus, S. sanguinis, C. propinquum, C. striatum and M. smegmatis were incubated with PBS, 10 μM of TG, TG-DNB1 or TG-DNB2 at room temperature for 1 h. Cells were washed stringently with PBS for 3 times then fixed in 10% formalin solution for 30 min before vizualized with a confocal microscope (63×/oil, Ex/Em-FITC).
The fold increasing (F/FPBS) was calculated by normalizing against the fluorescence intensity of PBS-treated cells. Experiments were performed twice with similar results.
Freshly cultured E. coli (TOP10), E. coli expressing TEM1-β-lactamase, S. pneumoniae, S. aureus, S. sanguinis, C. propinquum, C. striatum, and M. smegmatis were incubated with PBS, 10 μM CDG1, CDG-DNB1, or CDG-DNB2 at room temperature for 1 h. Cells were washed 3 times PBS and then fixed in 10% formalin solution for 30 min before analyzed with a confocal microscope under 63×/oil, Ex/Em-FITC.
The fluorescence intensity of PBS treated cells of each strain was arbitrarily set as 1 to show the fold increasing (F/FPBS).

[1] = tested on: E. coli expressing TEM1-β-lactamase; format: cell-based
BCG [2] = format: cell-based, Mycobacterium bovis; settings: 10 μM, room temperature, 1 h, washed
[3] = tested on: Mycobacterium tuberculosis H37Rv; format: cell-based
BCG [4] = format: cell-based, Mycobacterium bovis; settings: 10 μM, no washing
[5] = tested on: patients' clinical sputum samples; test: staining of patients' processed sputum samples; format: cell-based; settings: 10 μM, 1 h, room temperature
Protocol: FIG. 15 is a series of digital fluorescence confocal microscope images of CDG-DNB2 stained patients' processed sputum samples. Processed sputum samples were centrifuged and resuspended in 10 μM CDG-DNB2 for 1 h at room temperature. Cells were pelleted and washed stringently 3 times with PBS before fixation with 10% formalin for 30 min. Cells were further visualized using a confocal microscope at 20× or 60×/Ex 490-Em520.
Clinical study with CDG-DNB2: Probe CDG-DNB2 has been evaluated in patients' clinical sputum samples: 4 positive and 4 negative samples.

[6] = target: M. smegmatis DprE1 protein (Mycolicibacterium smegmatis, UniProt A0R607); test: fluorescence labeling of purified DprE1 protein by dye-DNB analogues in the presence of M. smegmatis lysate; format: biochemical; settings: for covalent fluorescence labeling of DprE1 protein: 10 μM probe, in the presence of M. smegmatis lysate
Chain of M. smegmatis DprE1 protein (A0R607 whole entry): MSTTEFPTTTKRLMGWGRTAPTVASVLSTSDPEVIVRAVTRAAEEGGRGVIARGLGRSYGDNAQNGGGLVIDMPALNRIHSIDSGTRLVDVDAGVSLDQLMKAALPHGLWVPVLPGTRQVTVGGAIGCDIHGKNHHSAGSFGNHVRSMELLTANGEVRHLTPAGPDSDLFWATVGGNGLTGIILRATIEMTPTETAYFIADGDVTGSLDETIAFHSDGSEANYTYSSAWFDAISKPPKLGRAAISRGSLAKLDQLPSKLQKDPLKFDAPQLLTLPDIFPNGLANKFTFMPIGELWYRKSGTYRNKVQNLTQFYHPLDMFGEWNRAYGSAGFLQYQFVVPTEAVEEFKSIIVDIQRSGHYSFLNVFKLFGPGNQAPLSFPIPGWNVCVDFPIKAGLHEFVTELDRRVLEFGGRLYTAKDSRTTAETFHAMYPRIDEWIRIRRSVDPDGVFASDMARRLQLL

C[C@H]1COC2(CCN(c3nc(=O)c4cc(C(F)(F)F)cc([N+](=O)[O-])c4s3)CC2)O1 [BTZ043]
antimycobacterial activity (mycobacteria): potent antimycobacterial agents

COc1ccc(-c2c3ccc(=O)cc-3oc3cc(OCc4ccc(OCC5=C(C(=O)O)N6C(=O)[C@@H](NC(=O)Cc7ccccc7)[C@H]6SC5)cc4)ccc23)c(C)c1 [CDG-1]
trapping of fluorescence signal in or on M. smegmatis cells (M. smegmatis): cannot be trapped in or on the cells

Cc1cc(OCCNC(=O)c2cc([N+](=O)[O-])cc([N+](=O)[O-])c2)ccc1-c1c2ccc(=O)cc-2oc2cc(OCc3ccc(OCC4=C(C(=O)O)N5C(=O)[C@@H](NC(=O)Cc6ccccc6)[C@H]5SC45CC5)cc3)ccc12 [CDG-DNB2]
hydrolysis of probe by TEM1 β-lactamase-transformed E. coli [1]: can hydrolyze CDG-DNB2 and generate the uncaged fluorescent signal | retention of fluorescence in TEM1 β-lactamase-transformed E. coli [1]: cannot retain the fluorescence | staining of BCG (confocal) (BCG [2]): exhibited an intense (green) fluorescent signal | fold increase of fluorescence intensity over control levels, H37Rv [3]: about 20 fold | staining of H37Rv (confocal) [3]: exhibited an intense (green) fluorescent signal | time at which prominent fluorescence was observed (BCG [4]; imaged every 2.5 min from 5 min): 15 min | continuous enhancement of fluorescence till (BCG [4]; time at which imaging was stopped): 75 min | staining of negative sputum samples ([5]; 4 negative samples): all the negative samples had little background fluorescence | staining of positive sputum samples ([5]; 4 positive samples): 4 positive samples all displayed green fluorescence-stained bacteria

COc1ccc(OCCNC(=O)c2cc([N+](=O)[O-])cc([N+](=O)[O-])c2)cc1 [DNB1, reference compound]
DprE1 labeling by TG-DNB analogues after pre-incubation with DNB1 ([6]; DprE1SM incubated with 50 μM DNB1 for one hour prior to addition of TG-DNB1): abolished the band | antimycobacterial activity (mycobacteria): potent antimycobacterial agents

Cc1cc(OCCn2cc(CNC(=O)c3cc([N+](=O)[O-])cc([N+](=O)[O-])c3)nn2)ccc1-c1c2ccc(=O)cc-2oc2cc(O)ccc12 [TG-DNB1]
covalent fluorescence labeling of DprE1 protein [6]: significantly higher labeling capability than did the two mononitro compounds; also recorded: a fluorescent band was observed

Cc1cc(OCCNC(=O)c2cc([N+](=O)[O-])cc([N+](=O)[O-])c2)ccc1-c1c2ccc(=O)cc-2oc2cc(O)ccc12 [TG-DNB2]
covalent fluorescence labeling of DprE1 protein [6]: significantly higher labeling capability than did the two mononitro compounds; also recorded: a fluorescent band was observed
